These are literature values, as cited in patent US10414795B2, “Techniques of preparing collagen active peptides” (Technical Institute of Physics and Chemistry, Chinese …, priority 2016, dated 2019).

The test system of the data set is human breast cancer cell line MCF-7. The note with it: read-out: IC50, dose-dependent inhibition effect.

Broadly, the IC50 is the concentration that gives 50% inhibition. As to “LPHVLTPEAGAT [Leu-Pro-His-Val-Leu-Thr-Pro-Glu-Ala-Gly-Ala-Thr, anticancer peptide (1206 Da) from tuna dark muscle byproduct hydrolysate]”, the IC50 is 8.1 µM. Take “PTAEGVYMVT [Pro-Thr-Ala-Glu-Gly-Val-Tyr-Met-Val-Thr, anticancer peptide (1124 Da) from tuna dark muscle byproduct hydrolysate]”: the IC50 is 8.8 µM.
